Results from ChEMBL document CHEMBL1697781, “Assessment of the health effects of chemicals in humans: II. Construction of an adverse effects database for QSAR modeling” (Curr Drug Discov Technol, 2004).

Columns and labels:
Conditions in all cases: human; call rule not given here
[1] = system: Hepatotoxicity; assay: FDA HLAED, gamma-glutamyl transferase (GGT) increase
[2] = system: Hepatotoxicity; assay: FDA HLAED, liver enzyme composite activity
[3] = system: Hepatotoxicity; assay: FDA HLAED, lactate dehydrogenase (LDH) increase
[4] = system: Hepatotoxicity; assay: FDA HLAED, alkaline phosphatase increase
[5] = system: Hepatotoxicity; assay: FDA HLAED, serum glutamic pyruvic transaminase (SGPT) increase
[6] = system: Hepatotoxicity; assay: FDA HLAED, serum glutamic oxaloacetic transaminase (SGOT) increase
For GGT Increase - Index Value in this document: reference of the scale not given here.
For LDH Increase - Index Value in this document: reference of the scale not given here.

| Structure (SMILES) | GGT Increase - Activity Score [1] | GGT Increase - Index Value [1] | GGT Increase - Number of Reports [1] | Composite Activity - Active [2] | Composite Activity - Marginal [2] | Composite Activity - Score [2] | LDH Increase - Activity Score [3] | LDH Increase - Index Value [3] | LDH Increase - Number of Reports [3] | Alkaline Phosphatase Increase - Activity Score [4] | Alkaline Phosphatase Increase - Index Value [4] | Alkaline Phosphatase Increase - Number of Reports [4] | SGPT Increase - Activity Score [5] | SGPT Increase - Index Value [5] | SGPT Increase - Number of Reports [5] | SGOT Increase - Activity Score [6] | SGOT Increase - Index Value [6] | SGOT Increase - Number of Reports [6] |
| --- | --- | --- | --- | --- | --- | --- | --- | --- | --- | --- | --- | --- | --- | --- | --- | --- | --- | --- |
| CC(=O)CCCCn1c(=O)c2c(ncn2C)n(C)c1=O [PENTOXIFYLLINE] | Inactive | 0 | < 4 | 0 | 0 | Inactive | Inactive | 0.6 | >= 4 | Inactive | 1 | >= 4 | Inactive | 0.3 | < 4 | Inactive | 0.9 | >= 4 |
| CCCN1C[C@H](CSC)C[C@@H]2c3cccc4[nH]cc(c34)C[C@H]21 [PERGOLIDE] | Inactive | 0 | < 4 | 0 | 0 | Inactive | Inactive | 0 | < 4 | Inactive | 1.3 | < 4 | Inactive | 3.9 | < 4 | Inactive | 3.9 | < 4 |
| CC1(C)C(C=C(Cl)Cl)C1C(=O)OCc1cccc(Oc2ccccc2)c1 (configuration not stated) [PERMETHRIN] | Inactive | 0 | < 4 | 0 | 0 | Inactive | Inactive | 0 | < 4 | Inactive | 0 | < 4 | Inactive | 0 | < 4 | Inactive | 0 | < 4 |
| CC[C@@H]1C(=O)OC[C@@H]1Cc1cncn1C [PILOCARPINE] | Inactive | 0 | < 4 | 0 | 0 | Inactive | Inactive | 0 | < 4 | Inactive | 0 | < 4 | Inactive | 4.6 | < 4 | Inactive | 4.6 | < 4 |
| O=c1[nH]c2ccccc2n1C1CCN(CCCC(c2ccc(F)cc2)c2ccc(F)cc2)CC1 [PIMOZIDE] | Inactive | 17.6 | < 4 | 0 | 0 | Inactive | Inactive | 0 | < 4 | Inactive | 17.6 | < 4 | Inactive | 17.6 | < 4 | Inactive | 0 | < 4 |
| CC(C)NCC(O)COc1cccc2[nH]ccc12 (configuration not stated) [PINDOLOL] | Inactive | 0 | < 4 | 0 | 0 | Inactive | Inactive | 0.7 | < 4 | Inactive | 1 | < 4 | Inactive | 2.6 | >= 4 | Inactive | 2.6 | >= 4 |
| CC(=O)O[C@H]1C[C@@H]2CC[C@@H]3[C@H](CC[C@@]4(C)[C@H]3C[C@H](N3CC[N+](C)(C)CC3)[C@@H]4OC(C)=O)[C@@]2(C)C[C@@H]1N1CC[N+](C)(C)CC1.[Br-].[Br-] [PIPECURONIUM BROMIDE] | Inactive | 0 | < 4 | 0 | 0 | Inactive | Inactive | 0 | < 4 | Inactive | 0 | < 4 | Inactive | 0 | < 4 | Inactive | 0 | < 4 |
| CCN1CCN(C(=O)N[C@@H](C(=O)N[C@@H]2C(=O)N3[C@@H]2SC(C)(C)[C@@H]3C(=O)O)c2ccccc2)C(=O)C1=O [PIPERACILLIN] | Inactive | 0 | < 4 | 0 | 0 | Inactive | Inactive | 0 | < 4 | Inactive | 0.3 | < 4 | Inactive | 0 | < 4 | Inactive | 0.3 | < 4 |
| CC(C)(C)NCC(O)c1ccc(O)c(CO)n1 (configuration not stated) [PIRBUTEROL] | Inactive | 0 | < 4 | 0 | 0 | Inactive | Inactive | 0 | < 4 | Inactive | 0 | < 4 | Inactive | 0 | < 4 | Inactive | 0.3 | < 4 |
